# According to PubChem BioAssay AID2060489 (Molecular Pharmacology Branch, DTP, NCI, 2025):
# Tested on: 922993-354-T-J3-PDC complex spheroids, viability
# Assay: Anticancer human tumor 922993-354-T-J3-PDC patient-derived endometrial carcinoma cell line growth inhibition [GQUAD]
# Conditions: for IC50: curve of first compound; for viability, T/C: stronger effect = lower value
# From the text: DNA G-quadruplex Stabilizer Agents in Combinations in Complex Spheroids
# A high-throughput screen of multi-cell type tumor spheroids was designed to identify active combinations of DNA G-quadruplex stabilizer agents and targeted small molecules. Complex spheroids include a stromal component modeled by human endothelial cells (HUVEC) and fibroblasts modeled by human mesenchymal stem cells (MSCs). The concentration ranges selected for each drug and investigational agent were based upon clinically achievable concentrations if the clinical Cmax of the agent was known.
# Compounds. The drugs and investigational agents: pidnarulex (CX-5461; NSC782164), APTO-253 (NSC789042), BRACO-19 (NSC847499), peposertib (NSC802822), ceralasertib (NSC780249), elimusertib (NSC800525), camonsertib (NSC841442), AZD-1390 (NSC803789), olaparib (NSC753686), talazoparib (NSC767125), ART-558 (NSC835418), sotorasib (NSC818433), MRTX-1133 (NSC836407), SN-38 (NSC673596), topotecan (NSC609699), etoposide (NSC141540), doxorubicin (NSC123127), gemcitabine (NSC613327), 5-fluorouracil (NSC19893), paclitaxel (NSC125973), vemurafenib (NSC761431), panobinostat (NSC761190), R-306465 (JNJ-16241199; NSC773264), adavosertib (NSC754352), TP-3654 (NSC805149), carboplatin (NSC241240), KSQ-4279 (NSC840948), and staurosporine (NSC755774) were obtained from the National Cancer Institute (NCI) Developmental Therapeutics Program Chemical Repository (34). The FDA-approved anticancer drug set is available from the NCI Developmental Therapeutics Program. […] The stock solutions were prepared in dimethyl sulfoxide (DMSO, Sigma-Aldrich, St. Louis, MO, cat. D2650) at 800-fold the tested concentration and stored at -70 degrees C prior to their use. All drugs and investigational agents were tested over a range starting from a high concentration at or near the clinical Cmax and decreasing in half-log increments. If the clinical Cmax for an agent had not been determined, the highest concentration tested was 10 microM.
# 2.3 Cell Culture. All cells were maintained in an incubator at 37 degrees C and 5% CO2 with 95% humidity. The PDC lines were cultured according to standard operating procedures established by the NCI PDMR. All PDCs were thawed and cultured in Matrigel-coated flasks prepared with a working solution of 1X Ham's F-12 nutrient mix, without supplementation (Invitrogen, cat. 11765054), 100 U/mL penicillin-streptomycin (Invitrogen, cat. 15140122), and 2.5% Matrigel (Corning Inc., cat. 354248) for the first three passages. The 857933-349-R-J2-PDC line was cultured in 6C/Colon 1B media, which includes advanced DMEM/F-12 (Thermo Fisher Scientific, cat. 12634028), 10 mM HEPES (Thermo Fisher Scientific, cat. 15630080), 1X GlutaMAX supplement (Thermo Fisher Scientific, cat. 35050061), 0.1 mg/mL primocin (InvivoGen, cat. ant-pm-2), 10% defined fetal bovine serum, heat inactivated (HyClone Laboratories Inc., cat. SH30070.03HI), 50% L-WRN conditioned media (ATCC, cat. CRL-3276), 1.25 mM N-Acetyl-L-cysteine (Sigma-Aldrich, cat. A9165), 10 mM nicotinamide (Sigma-Aldrich, cat. N0636), 1X B-27 supplement (Thermo Fisher Scientific, cat. 17504044), 1X N-2 supplement (Thermo Fisher Scientific, cat. 17502048), 10 microM Y-27632 dihydrochloride (Tocris Bioscience, cat. 1254), and 50 ng/mL human EGF recombinant protein (Thermo Fisher Scientific, cat. PHG0311). The 485176-168-R4-J1-PDC line was cultured in Panc media, which includes all 6C/Colon 1B media components plus 100 ng/mL human FGF-10 (Thermo Fisher Scientific, cat. 100-26), 500 nM SB-431542 (Selleckchem, cat. S1067), and gastrin (Tocris, cat. 3006).
# […]
# 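Further: spheroids exposed to compounds for seven days.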
# 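Wherever viability, T/C is given: 100% = DMSO vehicle control viability.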
smiles,measurement,setting,value
C=CCn1c(=O)c2cnc(Nc3ccc(N4CCN(C)CC4)cc3)nc2n1-c1cccc(C(C)(C)O)n1 + CN(C)c1ccc(Nc2c3ccc(NC(=O)CCN4CCCC4)cc3nc3cc(NC(=O)CCN4CCCC4)ccc23)cc1,IC50,second compound 0.0316 µM,4.2 µM
same,IC50,second compound 0.1 µM,4.2 µM
same,IC50,second compound 0.316 µM,4.34 µM
same,IC50,second compound 1 µM,5.26 µM
same,IC50,second compound 3.16 µM,5.16 µM
same,IC50,second compound 10 µM,6.53 µM
same,"viability, T/C","second compound 0.0316 µM, first compound 0.0316 µM",103%
same,"viability, T/C","second compound 0.0316 µM, first compound 0.1 µM",80.9%
same,"viability, T/C","second compound 0.0316 µM, first compound 0.316 µM",87.4%
same,"viability, T/C","second compound 0.0316 µM, first compound 1 µM",74.5%
same,"viability, T/C","second compound 0.0316 µM, first compound 3.16 µM",67.7%
same,"viability, T/C","second compound 0.0316 µM, first compound 10 µM",12.4%
same,"viability, T/C","second compound 0.1 µM, first compound 0.0316 µM",95.3%
same,"viability, T/C","second compound 0.1 µM, first compound 0.1 µM",87.1%
same,"viability, T/C","second compound 0.1 µM, first compound 0.316 µM",88%
same,"viability, T/C","second compound 0.1 µM, first compound 1 µM",88.6%
same,"viability, T/C","second compound 0.1 µM, first compound 3.16 µM",61.8%
same,"viability, T/C","second compound 0.1 µM, first compound 10 µM",13.9%
same,"viability, T/C","second compound 0.316 µM, first compound 0.0316 µM",93.6%
same,"viability, T/C","second compound 0.316 µM, first compound 0.1 µM",101%
same,"viability, T/C","second compound 0.316 µM, first compound 0.316 µM",73.2%
same,"viability, T/C","second compound 0.316 µM, first compound 1 µM",81.8%
same,"viability, T/C","second compound 0.316 µM, first compound 3.16 µM",65.6%
same,"viability, T/C","second compound 0.316 µM, first compound 10 µM",16.9%
same,"viability, T/C","second compound 1 µM, first compound 0.0316 µM",110%
same,"viability, T/C","second compound 1 µM, first compound 0.1 µM",121%
same,"viability, T/C","second compound 1 µM, first compound 0.316 µM",95.3%
same,"viability, T/C","second compound 1 µM, first compound 1 µM",96.5%
same,"viability, T/C","second compound 1 µM, first compound 3.16 µM",79.1%
same,"viability, T/C","second compound 1 µM, first compound 10 µM",17%
same,"viability, T/C","second compound 3.16 µM, first compound 0.0316 µM",100%
same,"viability, T/C","second compound 3.16 µM, first compound 0.1 µM",85.5%
same,"viability, T/C","second compound 3.16 µM, first compound 0.316 µM",113%
same,"viability, T/C","second compound 3.16 µM, first compound 1 µM",104%
same,"viability, T/C","second compound 3.16 µM, first compound 3.16 µM",74.6%
same,"viability, T/C","second compound 3.16 µM, first compound 10 µM",16.6%
same,"viability, T/C","second compound 10 µM, first compound 0.0316 µM",111%
same,"viability, T/C","second compound 10 µM, first compound 0.1 µM",109%
same,"viability, T/C","second compound 10 µM, first compound 0.316 µM",108%
same,"viability, T/C","second compound 10 µM, first compound 1 µM",110%
same,"viability, T/C","second compound 10 µM, first compound 3.16 µM",87.2%
same,"viability, T/C","second compound 10 µM, first compound 10 µM",28.2%
